Laboratory results reported in the CheMixHub viscosity set.

Assay: xn = mol fraction of the nth substance listed

CCCCCCCC + Cc1ccccc1
303.15 K, 101.33 kPa
Conditions	viscosity [mPa·s]
x2 = 0.2634	0.47
x2 = 0.4184	0.464
x2 = 0.8282	0.485
x2 = 0.888	0.498
x2 = 0.9417	0.508

CCCCCCCCCCCCCC + Cc1ccccc1
viscosity [mPa·s], 101 kPa
Conditions	x1 = 0.1106	x1 = 0.1996	x1 = 0.2947	x1 = 0.3965	x1 = 0.5013	x1 = 0.5988	x1 = 0.7002	x1 = 0.7982	x1 = 0.8995
298.15 K	0.697	0.803	0.909	1.038	1.168	1.318	1.468	1.664	1.86
303.15 K	0.654	0.748	0.842	0.962	1.081	1.211	1.341	1.513	1.685
308.15 K	0.613	0.699	0.786	0.894	1.002	1.115	1.228	1.384	1.54

CCCCCO + Cc1ccccc1
Conditions	viscosity [mPa·s]
293.15 K, 101.33 kPa, x1 = 0.0767	0.623
293.15 K, 101.33 kPa, x1 = 0.155	0.678
293.15 K, 101.33 kPa, x1 = 0.2336	0.747
293.15 K, 101.33 kPa, x1 = 0.3074	0.834
293.15 K, 101.33 kPa, x1 = 0.3459	0.888
293.15 K, 101.33 kPa, x1 = 0.4529	1.094
293.15 K, 101.33 kPa, x1 = 0.5308	1.29
293.15 K, 101.33 kPa, x1 = 0.601	1.512
293.15 K, 101.33 kPa, x1 = 0.6728	1.795
293.15 K, 101.33 kPa, x1 = 0.7788	2.338
293.15 K, 101.33 kPa, x1 = 0.8616	2.883
293.15 K, 101.33 kPa, x1 = 0.8898	3.096
303.15 K, 101 kPa, x1 = 0.0999	0.564
303.15 K, 101 kPa, x1 = 0.1999	0.6272
303.15 K, 101 kPa, x1 = 0.3	0.7213
303.15 K, 101 kPa, x1 = 0.4	0.8366
303.15 K, 101 kPa, x1 = 0.4999	0.9954
303.15 K, 101 kPa, x1 = 0.6001	1.221
303.15 K, 101 kPa, x1 = 0.6999	1.475
303.15 K, 101 kPa, x1 = 0.8001	1.822
303.15 K, 101 kPa, x1 = 0.9001	2.289
303.15 K, 101.33 kPa, x2 = 0.0745	2.508
303.15 K, 101.33 kPa, x2 = 0.2114	1.81
303.15 K, 101.33 kPa, x2 = 0.4291	1.101
303.15 K, 101.33 kPa, x2 = 0.5202	0.925
303.15 K, 101.33 kPa, x2 = 0.609	0.787
303.15 K, 101.33 kPa, x2 = 0.7058	0.678
303.15 K, 101.33 kPa, x2 = 0.8063	0.592
303.15 K, 101.33 kPa, x2 = 0.8629	0.564
303.15 K, 101.33 kPa, x2 = 0.9443	0.536
308.15 K, 101 kPa, x1 = 0.0999	0.5329
308.15 K, 101 kPa, x1 = 0.1999	0.5883
308.15 K, 101 kPa, x1 = 0.3	0.6717
308.15 K, 101 kPa, x1 = 0.4	0.7723
308.15 K, 101 kPa, x1 = 0.4999	0.9102
308.15 K, 101 kPa, x1 = 0.6001	1.106
308.15 K, 101 kPa, x1 = 0.6999	1.324
308.15 K, 101 kPa, x1 = 0.8001	1.617
308.15 K, 101 kPa, x1 = 0.9001	2.077
308.15 K, 101.33 kPa, x2 = 0.0745	2.202
308.15 K, 101.33 kPa, x2 = 0.2114	1.611
308.15 K, 101.33 kPa, x2 = 0.4291	1.001
308.15 K, 101.33 kPa, x2 = 0.5202	0.846
308.15 K, 101.33 kPa, x2 = 0.609	0.726
308.15 K, 101.33 kPa, x2 = 0.7058	0.63
308.15 K, 101.33 kPa, x2 = 0.8063	0.554
308.15 K, 101.33 kPa, x2 = 0.8629	0.53
308.15 K, 101.33 kPa, x2 = 0.9443	0.507
313.15 K, 101 kPa, x1 = 0.0999	0.4988
313.15 K, 101 kPa, x1 = 0.1999	0.5518
313.15 K, 101 kPa, x1 = 0.3	0.6271
313.15 K, 101 kPa, x1 = 0.4	0.7149
313.15 K, 101 kPa, x1 = 0.4999	0.8351
313.15 K, 101 kPa, x1 = 0.6001	1.004
313.15 K, 101 kPa, x1 = 0.6999	1.192
313.15 K, 101 kPa, x1 = 0.8001	1.442
313.15 K, 101 kPa, x1 = 0.9001	1.838
313.15 K, 101.33 kPa, x2 = 0.0745	1.94
313.15 K, 101.33 kPa, x2 = 0.2114	1.439
313.15 K, 101.33 kPa, x2 = 0.4291	0.911
313.15 K, 101.33 kPa, x2 = 0.5202	0.778
313.15 K, 101.33 kPa, x2 = 0.609	0.67
313.15 K, 101.33 kPa, x2 = 0.7058	0.587
313.15 K, 101.33 kPa, x2 = 0.8063	0.52
313.15 K, 101.33 kPa, x2 = 0.8629	0.5
313.15 K, 101.33 kPa, x2 = 0.9443	0.484
318.15 K, 101 kPa, x1 = 0.0999	0.4725
318.15 K, 101 kPa, x1 = 0.1999	0.5195
318.15 K, 101 kPa, x1 = 0.3	0.5876
318.15 K, 101 kPa, x1 = 0.4	0.6645
318.15 K, 101 kPa, x1 = 0.4999	0.7703
318.15 K, 101 kPa, x1 = 0.6001	0.9178
318.15 K, 101 kPa, x1 = 0.6999	1.08
318.15 K, 101 kPa, x1 = 0.8001	1.296
318.15 K, 101 kPa, x1 = 0.9001	1.63
323.15 K, 101 kPa, x1 = 0.0999	0.4511
323.15 K, 101 kPa, x1 = 0.1999	0.4907
323.15 K, 101 kPa, x1 = 0.3	0.5523
323.15 K, 101 kPa, x1 = 0.4	0.6202
323.15 K, 101 kPa, x1 = 0.4999	0.7139
323.15 K, 101 kPa, x1 = 0.6001	0.8422
323.15 K, 101 kPa, x1 = 0.6999	0.982
323.15 K, 101 kPa, x1 = 0.8001	1.169
323.15 K, 101 kPa, x1 = 0.9001	1.459

ClC(Cl)=C(Cl)Cl + Cc1ccccc1
303.15 K, 101 kPa
Conditions	viscosity [mPa·s]
x1 = 0.1502	0.551
x1 = 0.2552	0.574
x1 = 0.2612	0.574
x1 = 0.3392	0.597
x1 = 0.3745	0.599
x1 = 0.4608	0.621
x1 = 0.4715	0.629
x1 = 0.5666	0.662
x1 = 0.5759	0.652
x1 = 0.6428	0.691
x1 = 0.6834	0.688
x1 = 0.6905	0.708
x1 = 0.7448	0.706
x1 = 0.7529	0.73
x1 = 0.8376	0.76
x1 = 0.8395	0.738
x1 = 0.9336	0.793

O=[N+]([O-])c1ccccc1 + Cc1ccccc1
viscosity [mPa·s], 101 kPa
Conditions	x1 = 0.115	x1 = 0.227	x1 = 0.344	x1 = 0.457	x1 = 0.577	x1 = 0.675	x1 = 0.787	x1 = 0.87
298.15 K	0.622	0.702	0.803	0.894	1.03	1.169	1.374	1.542
303.15 K	0.586	0.66	0.743	0.837	0.956	1.08	1.252	1.42
308.15 K	0.554	0.618	0.694	0.783	0.922	1.042	1.157	1.313
